US11752122B2 (OKLAHOMA MEDICAL RESEARCH FOUNDATION, priority 2018, dated 2023)
Entries after “also recorded” stand apart in the source; their conditions may differ. Read-outs that look alike come from different tables or passages of the source.

Legend:
mouse model = conditions: large doses, mouse model; cited from earlier work
[1] = IV formulations; cited from earlier work
[2] = cited from earlier work
[3] = Activity and stability of NAC dissolved in water; type: physicochemical; conditions: up to 15 days; tested by effect on blocking shear-dependent TGF-β1 activation
Excerpt: Experimental Design. […] Water was replaced with a fresh solution every week.

LDLR mice on HFD = conditions: for WSS (wall shear stress) / fractional valve opening: LDLR mice on HFD, vs untreated control mice
Excerpt: Mice. Hypercholesterolemic mice deficient for low-density lipoprotein receptors (Ldlr−/−), which only express ApoB-100 (Ldlr−/−Apob100/100, LDLR), were obtained from Jackson Laboratories (B6; 129SLdlrtm1HerApobtm2Sgy/J, stock no. 003000). WT C57bl/6 mice were also obtained from the Jackson Laboratory (stock no. 000664) and served as controls. TGF-β1^platelet-KO-LDLR mice (Pf4Cre+Tgfb1f/f;Ldlr−/−Apob100/100;) and TGF-β1^flox-LDLR littermate controls (Tgfb1f/f;Ldlr−/−Apob100/100) were generated by crossing LDLR mice with Pf4Cre+;Tgfb1f/f mice, as shown in FIGS. 7A-B and Supplemental Table 5. […] The inventor crossed Tie2Cre mice (stock no. 008863, Jackson Laboratories) with tdTomato lox-stop-lox mice (stock no. 007909, Jackson Laboratories) to generate Tie2Cre;tdTomato mice that express tdTomato only under Cre activity. All mice were housed in a controlled environment (23±2° C.; 12 hours light/dark cycles) and fed either a chow diet (CD) (PicoLab® Rodent Diet 20, 5053) or a customized high fat diet (HFD) (Harlan Teklad, TD.9612102. containing 21% milk fat (MF), 1.25% Cholesterol) in powdered form in a glass jar with perforated metal strainer (DYETS, Braintree Scientific Inc.). The Oklahoma Medical Research Foundation's Institutional Animal Care and Usage Committee approved all procedures.
Experimental Design. A total of 118 LDLR (58 Males, 60 Females) and 20 WT mice (10 Males, 10 Females) were used for this study. Half of the mice (6 weeks old) were switched to HFD and maintained for up to 9 months. Progression and severity (mild/moderate/severe) of AS were monitored at 0, 3, 6 and 9 months by echocardiography using non-invasive ultrasound imaging techniques. Five mice per cage (total of 25 males, 15 females) were treated with 2% N-acetylcysteine (NAC) (Acros Organics, 160280010) in drinking water. NAC was prepared in reverse osmosis water and its pH was adjusted to 7.4 with NaOH. Water was replaced with a fresh solution every week.
Echocardiography. Mice were anesthetized with Isoflurane (3-5% inhalation) in an induction chamber. Mice that appeared to be sick due to severe stenosis or that were underweight were anesthetized using a lower isoflurane level to prevent adverse or lethal effects from the anesthetic. Once visibly anesthetized, isoflurane was reduced to 0.5%-2% and the mouse was moved from the chamber to a nose-cone on a heated platform set at 40° C. to maintain body temperature (35±2° C.). Heavier mice were maintained at higher isoflurane levels as they appeared less sensitive to its anesthetic effects. All four limbs were taped to physiological electrodes and a rectal temperature probe was inserted. Electrode gel was used to enhance the physiologic readings. To ensure accuracy of all echo measurements, physiological parameters were monitored and recordings were only taken if the heart rate was 430-550 beats per minute, respiration was 20-100 breaths per minute, and body temperature was close to 37° C. (35±2° C.).
Measurement of AS parameters using a modified view of ultrasound imaging. Echocardiography is the gold standard non-invasive method to measure AS in humans. However, the mouse heart rate is 10-times faster (500 to 600 beats per minute), making the acquisition of high-resolution images of the very thin non-diseased valves challenging. […] LVOT was measured from the long-axis view and was used to calculate AV pressure and normalize the cusp separation (Lindman et al., 2016; Meyer et al., 2012). This view was obtained by tilting the lower left corner of the platform downward by about 30° and angling the transducer up such that it interfaced with the chest cavity by about 45°.

[4] = biological target: T1, latent TGF-β1 released from platelets (Homo sapiens, UniProt P01137); conditions: in vitro; cited from earlier work
T1 construct: host or cells: platelet releasate

[5] = LDLR HFD + NAC (2-5 Months), total n=8
[6] = LDLR HFD + NAC (3-5 Months), total n=11
[7] = LDLR HFD + NAC (5-6 Months), total n=7

T1 sequence (P01137 30-278 limits assumed): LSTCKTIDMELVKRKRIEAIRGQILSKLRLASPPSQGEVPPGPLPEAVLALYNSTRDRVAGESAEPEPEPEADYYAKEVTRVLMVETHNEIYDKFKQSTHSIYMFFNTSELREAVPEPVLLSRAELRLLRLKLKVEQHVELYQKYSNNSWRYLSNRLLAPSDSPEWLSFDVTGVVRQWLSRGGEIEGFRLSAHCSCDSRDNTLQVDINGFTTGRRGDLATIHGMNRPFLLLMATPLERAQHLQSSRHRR
T1 sequence (P01137 279-390 limits assumed): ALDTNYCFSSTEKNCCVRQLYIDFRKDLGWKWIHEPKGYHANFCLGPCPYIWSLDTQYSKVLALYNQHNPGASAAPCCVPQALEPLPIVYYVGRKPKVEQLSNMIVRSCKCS
T1 sequence (Q14766 24-1721 partner): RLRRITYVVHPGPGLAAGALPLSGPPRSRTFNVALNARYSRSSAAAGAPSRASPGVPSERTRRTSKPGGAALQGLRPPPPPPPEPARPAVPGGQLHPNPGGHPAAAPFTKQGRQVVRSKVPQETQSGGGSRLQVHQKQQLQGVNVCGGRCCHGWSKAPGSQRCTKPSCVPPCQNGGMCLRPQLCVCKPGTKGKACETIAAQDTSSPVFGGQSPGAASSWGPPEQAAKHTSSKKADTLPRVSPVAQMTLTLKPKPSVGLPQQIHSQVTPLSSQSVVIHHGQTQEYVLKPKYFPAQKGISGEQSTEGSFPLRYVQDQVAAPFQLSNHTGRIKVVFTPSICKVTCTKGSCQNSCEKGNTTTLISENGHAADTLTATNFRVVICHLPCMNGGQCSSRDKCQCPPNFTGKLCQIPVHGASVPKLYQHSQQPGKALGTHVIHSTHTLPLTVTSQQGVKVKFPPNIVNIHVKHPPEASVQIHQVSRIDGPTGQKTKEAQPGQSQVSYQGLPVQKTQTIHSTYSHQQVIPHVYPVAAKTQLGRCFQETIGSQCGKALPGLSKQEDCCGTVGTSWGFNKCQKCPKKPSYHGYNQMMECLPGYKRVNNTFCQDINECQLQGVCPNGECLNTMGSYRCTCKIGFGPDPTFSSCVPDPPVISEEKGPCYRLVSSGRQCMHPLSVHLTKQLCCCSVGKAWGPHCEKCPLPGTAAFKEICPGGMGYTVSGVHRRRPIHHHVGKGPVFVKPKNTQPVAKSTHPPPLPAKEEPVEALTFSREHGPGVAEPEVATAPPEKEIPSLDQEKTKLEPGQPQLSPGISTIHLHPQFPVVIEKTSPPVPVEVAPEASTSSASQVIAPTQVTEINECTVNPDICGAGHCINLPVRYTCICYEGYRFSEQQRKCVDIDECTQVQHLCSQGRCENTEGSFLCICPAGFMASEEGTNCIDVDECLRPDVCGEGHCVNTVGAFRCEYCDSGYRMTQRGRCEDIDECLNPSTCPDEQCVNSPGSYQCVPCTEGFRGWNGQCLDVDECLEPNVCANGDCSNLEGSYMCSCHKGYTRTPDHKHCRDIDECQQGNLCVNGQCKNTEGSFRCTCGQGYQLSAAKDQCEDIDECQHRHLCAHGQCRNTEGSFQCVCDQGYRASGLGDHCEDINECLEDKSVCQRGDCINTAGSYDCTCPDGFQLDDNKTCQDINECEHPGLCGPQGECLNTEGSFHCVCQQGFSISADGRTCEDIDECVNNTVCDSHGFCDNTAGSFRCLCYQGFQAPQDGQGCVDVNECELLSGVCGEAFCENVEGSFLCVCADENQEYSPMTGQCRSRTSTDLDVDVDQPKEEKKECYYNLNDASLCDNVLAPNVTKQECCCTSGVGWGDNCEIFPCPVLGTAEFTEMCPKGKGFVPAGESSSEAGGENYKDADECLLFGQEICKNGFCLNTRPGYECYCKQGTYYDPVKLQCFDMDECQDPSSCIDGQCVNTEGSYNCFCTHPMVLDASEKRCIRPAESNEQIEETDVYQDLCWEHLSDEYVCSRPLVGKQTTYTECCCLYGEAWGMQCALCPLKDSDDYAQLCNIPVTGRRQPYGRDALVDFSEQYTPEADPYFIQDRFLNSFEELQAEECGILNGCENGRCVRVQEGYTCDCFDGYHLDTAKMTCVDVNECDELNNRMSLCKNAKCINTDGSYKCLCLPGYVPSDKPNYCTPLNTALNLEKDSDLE

CC(=O)N[C@@H](CS)C(=O)O [NAC, N-acetylcysteine]
damage to the heart and lungs (mouse model): could potentially cause damage to the heart and lungs | patients experiencing anaphylaxis reaction [1]: Up to 18% | solubility ([2]; alcohol): soluble | solubility ([2]; chloroform): practically insoluble | solubility ([2]; ether): practically insoluble | solubility ([2]; water): soluble | activity and stability after dissolving in water [3]: validated | Penetrance, fractional valve opening: Mild Stenosis 0.75-0.85, number of mice (LDLR mice on HFD; [5]): 1 | Penetrance, fractional valve opening: Mild Stenosis 0.75-0.85, percent of mice (LDLR mice on HFD; [5]): (12%) | Penetrance, fractional valve opening: Moderate Stenosis 0.6-0.75, number of mice (LDLR mice on HFD; [5]): 2 | Penetrance, fractional valve opening: Moderate Stenosis 0.6-0.75, percent of mice (LDLR mice on HFD; [5]): (25%) | Penetrance, fractional valve opening: No Stenosis >0.85, number of mice (LDLR mice on HFD; [5]): 0 | Penetrance, fractional valve opening: No Stenosis >0.85, percent of mice (LDLR mice on HFD; [5]): (0%) | Penetrance, fractional valve opening: Severe Stenosis <0.6, number of mice (LDLR mice on HFD; [5]): 5 | Penetrance, wall shear stress: Mild Stenosis 350-525 dyn/cm^2, number of mice (LDLR mice on HFD; [5]): 0 | Penetrance, wall shear stress: Mild Stenosis 350-525 dyn/cm^2, percent of mice (LDLR mice on HFD; [5]): (0%) | Penetrance, wall shear stress: Moderate Stenosis 525-700 dyn/cm^2, number of mice (LDLR mice on HFD; [5]): 3 | Penetrance, wall shear stress: Moderate Stenosis 525-700 dyn/cm^2, percent of mice (LDLR mice on HFD; [5]): (37%) | Penetrance, wall shear stress: No Stenosis <350 dyn/cm^2, number of mice (LDLR mice on HFD; [5]): 0 | Penetrance, wall shear stress: No Stenosis <350 dyn/cm^2, percent of mice (LDLR mice on HFD; [5]): (0%) | Penetrance, wall shear stress: Severe Stenosis >700 dyn/cm^2, number of mice (LDLR mice on HFD; [5]): 6 | Penetrance, wall shear stress: Severe Stenosis >700 dyn/cm^2, percent of mice (LDLR mice on HFD; [5]): (63%) | Penetrance, fractional valve opening: Mild Stenosis 0.75-0.85, number of mice (LDLR mice on HFD; [6]): 2 | Penetrance, fractional valve opening: Mild Stenosis 0.75-0.85, percent of mice (LDLR mice on HFD; [6]): (16%) | Penetrance, fractional valve opening: Moderate Stenosis 0.6-0.75, number of mice (LDLR mice on HFD; [6]): 7 | Penetrance, fractional valve opening: Moderate Stenosis 0.6-0.75, percent of mice (LDLR mice on HFD; [6]): (64%) | Penetrance, fractional valve opening: No Stenosis >0.85, number of mice (LDLR mice on HFD; [6]): 0 | Penetrance, fractional valve opening: No Stenosis >0.85, percent of mice (LDLR mice on HFD; [6]): (0%) | Penetrance, fractional valve opening: Severe Stenosis <0.6, number of mice (LDLR mice on HFD; [6]): 2 | Penetrance, fractional valve opening: Severe Stenosis <0.6, percent of mice (LDLR mice on HFD; [6]): (18%) | Penetrance, wall shear stress: Mild Stenosis 350-525 dyn/cm^2, number of mice (LDLR mice on HFD; [6]): 4 | Penetrance, wall shear stress: Mild Stenosis 350-525 dyn/cm^2, percent of mice (LDLR mice on HFD; [6]): (36%) | Penetrance, wall shear stress: Moderate Stenosis 525-700 dyn/cm^2, number of mice (LDLR mice on HFD; [6]): 5 | Penetrance, wall shear stress: Moderate Stenosis 525-700 dyn/cm^2, percent of mice (LDLR mice on HFD; [6]): (46%) | Penetrance, wall shear stress: No Stenosis <350 dyn/cm^2, number of mice (LDLR mice on HFD; [6]): 0 | Penetrance, wall shear stress: No Stenosis <350 dyn/cm^2, percent of mice (LDLR mice on HFD; [6]): (0%) | Penetrance, wall shear stress: Severe Stenosis >700 dyn/cm^2, number of mice (LDLR mice on HFD; [6]): 2 | Penetrance, wall shear stress: Severe Stenosis >700 dyn/cm^2, percent of mice (LDLR mice on HFD; [6]): (18%) | Penetrance, fractional valve opening: Mild Stenosis 0.75-0.85, number of mice (LDLR mice on HFD; [7]): 3 | Penetrance, fractional valve opening: Mild Stenosis 0.75-0.85, percent of mice (LDLR mice on HFD; [7]): (43%) | Penetrance, fractional valve opening: Moderate Stenosis 0.6-0.75, number of mice (LDLR mice on HFD; [7]): 4 | Penetrance, fractional valve opening: Moderate Stenosis 0.6-0.75, percent of mice (LDLR mice on HFD; [7]): (57%) | Penetrance, fractional valve opening: No Stenosis >0.85, number of mice (LDLR mice on HFD; [7]): 0 | Penetrance, fractional valve opening: No Stenosis >0.85, percent of mice (LDLR mice on HFD; [7]): (0%) | Penetrance, fractional valve opening: Severe Stenosis <0.6, number of mice (LDLR mice on HFD; [7]): 0 | Penetrance, fractional valve opening: Severe Stenosis <0.6, percent of mice (LDLR mice on HFD; [7]): (0%) | Penetrance, wall shear stress: Mild Stenosis 350-525 dyn/cm^2, number of mice (LDLR mice on HFD; [7]): 3 | Penetrance, wall shear stress: Mild Stenosis 350-525 dyn/cm^2, percent of mice (LDLR mice on HFD; [7]): (43%) | Penetrance, wall shear stress: Moderate Stenosis 525-700 dyn/cm^2, number of mice (LDLR mice on HFD; [7]): 4 | Penetrance, wall shear stress: Moderate Stenosis 525-700 dyn/cm^2, percent of mice (LDLR mice on HFD; [7]): (57%) | Penetrance, wall shear stress: No Stenosis <350 dyn/cm^2, number of mice (LDLR mice on HFD; [7]): 0 | Penetrance, wall shear stress: No Stenosis <350 dyn/cm^2, percent of mice (LDLR mice on HFD; [7]): (0%) | Penetrance, wall shear stress: Severe Stenosis >700 dyn/cm^2, number of mice (LDLR mice on HFD; [7]): 0 | Penetrance, wall shear stress: Severe Stenosis >700 dyn/cm^2, percent of mice (LDLR mice on HFD; [7]): (0%) | WSS (wall shear stress) (LDLR mice on HFD; NAC months 3-5 (moderate AS)): improved | fractional valve opening (LDLR mice on HFD; NAC months 3-5 (moderate AS)): improved | WSS (wall shear stress) (LDLR mice on HFD; NAC months 5-6 (severe AS)): improved | fractional valve opening (LDLR mice on HFD; NAC months 5-6 (severe AS)): improved | effect on AS (LDLR mice on HFD; long-term NAC treatment (1-6 months) (data not shown)): very little to no effect | atherosclerotic plaque (adverse effect) (LDLR mice on HFD; mouse, in vivo): increased atherosclerotic plaque | heart function (adverse effect) (LDLR mice on HFD; mouse, in vivo): deterioration of heart function | mild to moderate AS progression (LDLR mice on HFD; short-term NAC treatment from 2-3 months (data not shown)): halted | shear-dependent activation of latent TGF-β1 released from platelets [4]: inhibited; also recorded: partially inhibits; also recorded: blocks
